Earlier results as cited in US20160000762A1, “IMPROVING COGNITIVE FUNCTION” (THE REGENTS OF THE UNIVERSITY OF CALIFORNIA, priority 2013, published 2016).

Tested on: Aβ
Details: after traumatic brain injury; Loane et al., 2009; cited from earlier work

C[C@H](NC(=O)Cc1cc(F)cc(F)c1)C(=O)N[C@H](C(=O)OC(C)(C)C)c1ccccc1 [DAPT]
Aβ levels: decreased
behavioral performance: improved
